This is an account of results in paper PMC6691761, “Potential multifunctional agents with anti-hepatoma and anti-inflammation properties by inhibiting NF-кB activation” (Journal of Enzyme Inhibition and Medicinal Chemistry, 2019).

Assay [1] has as its system human liver hepatocellular carcinoma cell line (HepG2). The experiment in a line: Cytotoxicity, MTT assay, HepG2. Particulars: for IC50: MTT, 24 h. Type of assay: cell-based. The method, boiled down: (§1)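 Cells were seeded at 1 × 10^4 cells/well in DMEM or 1640, grown 24 h, then exposed for 24 h to compounds at 0.01–50 μg/mL (0.1% DMSO). MTT was added for 4 h at 37 °C, formazan dissolved in DMSO and absorbance read at 570 nm; IC50 from triplicate viability data.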
On the technique in general: Formazan colour is commonly taken as a measure of viable cells.

The subject of assay [2] is C-caspase-3 expression in HepG2 xenografts. Briefly: Western blot, C-caspase-3 in HepG2 xenografts. Type of assay: in vivo, Balb/c nude mice. Particulars: 0.2, 1.0 and 5.0 mg/kg. The protocol:
(§2) The HepG2 cells xenografts were established using the Balb/c nude mice (female, 7-week-old, 17–19 g, n = 30) (Shanghai Laboratory Animal Center, Shanghai Shi, China) were used to investigate the anti-hepatoma effect of 96. Animal experiments were reviewed and approved by the Binzhou Medical University Experimental Animal Committee. Briefly, HepG2 cells (1 × 10^7/0.2 ml PBS/mouse) were inoculated subcutaneously. Three days after the inoculation, the mice were randomly divided into five groups: the saline treated group (Control), 96 (0.2 mg/kg) group, 96 (1.0 mg/kg) treated group, 96 (5.0 mg/kg) treated group, and DOX (1.0 mg/kg) treated group. 96 were dissolved in saline containing 1% of DMSO and administered intraperitoneally every 2 d for 20 days. DOX was also administered intraperitoneally every 2 d for 20 d. The body weight and HepG2 xenografts volumes were recorded from the day of treatment, and xenografts volumes were calculated using the equation: tumour volume = length×(width)[2]×π/6. At the end of the experiment, mice were sacrificed and the xenografts were obtained for western blotting, HE staining and immunohistochemistry staining.
(§3) Western blotting was performed to detect the expression of Bcl-2, Bax and C-caspase-3 in HepG2 xenografts. Fresh HepG2 xenografts tissues were lysed and the obtained proteins were processed as the protein obtained from the HepG2 cells.
On the technique in general: Immunoblotting shows a protein as a band on a membrane.

The subject of assay [3] is human breast cancer cells (MCF-7). The experiment in a line: Cytotoxicity, MTT assay, MCF-7. Type of assay: cell-based. The procedure, abridged:
as §1

In assay [4] the test system is Bcl-2 expression in HepG2 cells. Briefly: Western blot, Bcl-2 expression in HepG2 cells. Type of assay: cell-based, human. Particulars: HepG2, 1.0, 2.0, and 4.0 μM. The protocol: The HepG2 cells were treated with BAP 96 at different concentrations (1.0, 2.0, and 4.0 µM) for 3 h, and washed twice by PBS. The cells were lysed and the extracted proteins of cell lysates were separated by 10% SDS-PAGE gel electrophoresis, then transferred onto polyvinylidene fluorides membranes. The membranes were probed with antibodies and visualized using an enhanced chemiluminescence (ECL) detection kit.

For assay [5], the system named is human lung carcinoma cells (A549). The experiment in a line: Cytotoxicity, MTT assay, A549. Type of assay: cell-based. Particulars: for IC50: MTT, 24 h. The procedure, abridged:
as §1

For assay [6], the system named is Bcl-2 expression in HepG2 xenografts. Briefly: Western blot, Bcl-2 in HepG2 xenografts. Particulars: 0.2, 1.0 and 5.0 mg/kg. Type of assay: in vivo, Balb/c nude mice. How it is done: as §2, §3
The test system of assay [7] is human gastric adenocarcinoma cells (SGC7901). Briefly: Cytotoxicity, MTT assay, SGC7901. Type of assay: cell-based. The procedure, abridged:
as §1

For assay [8], the system named is human colon cancer cells (HCT116). Briefly: Cytotoxicity, MTT assay, HCT116. Type of assay: cell-based. The method, boiled down: as §1
The test system of assay [9] is human cervical carcinoma cells (HeLa). The experiment in a line: Cytotoxicity, MTT assay, HeLa. Type of assay: cell-based. The procedure, abridged:
as §1

Assay [10] has as its system TNF-α production in LPS-stimulated RAW264.7 cells. Briefly: TNF-α production in LPS-stimulated RAW264.7 cells, ELISA. Type of assay: cell-based. As to conditions: BAPs 6.0 μM, PDTC 30 μM, LPS 1.0 μg/mL. How it is done: The anti-inflammatory activities of BAPs were evaluated by ELISA. After pretreated with 30 μM of positive drug pyrrolidinedithiocarbamate (PDTC) or 6 μM of BAPs for 2 h, cells were treated with LPS (1.0 μg/mL) for 22 h. The culture media were collected and centrifuged for detecting the expression levels of TNF-α by an ELISA kit (eBioScience, San Diego, CA).
TNF-α is a common pro-inflammatory factors that can be produced by LPS-stimulated RAW264.7 macrophage[14]^,[24]. In order to evaluate the anti-inflammatory activity of BAPs, the effect of BAPs on TNF-α production in LPS-stimulated RAW264.7 cells was detected by ELISA. […] Only 92 presented slightly lower expression of TNF-α secretion (about 57%).
A general note: ELISA stands for enzyme-linked immunosorbent assay.

Assay [11] concerns HepG2 xenografts. Briefly: HE staining of HepG2 xenografts. Type of assay: in vivo, Balb/c nude mice. The protocol:
as §2
The HepG2 xenografts tissues were embedded using the paraffin, and sectioned for HE staining and immunohistochemistry staining. HE staining was performed routinely. The immunohistochemistry staining carried out as following. Briefly, the processed sections were incubated with the primary antibodies: Bcl-2 and TNF-α (NOVUS BIOLOGICALS) at 4 °C overnight. After washing, the anti-rabbit peroxidase-conjugated secondary antibody (Sigma-Aldrich, St. Louis, MO) was incubated for 1 h at RT. After washing with PBS, the cells were visualized using the 3,3'-diaminobenzidine (DAB) solution under the light microscope. The cell images were taken using a light microscopy (Olympus, Tokyo, Japan).

Setting [12] is: quotient of IC50 towards LO2 cells.

As a reminder, the IC50 is the concentration needed to halve the response being measured. Read a low IC50 as inhibition by little substance.

Bounds are passed on as bounds.

Turning to `CN1CC(=Cc2cccc(N=Cc3cc(Br)ccc3O)c2)C(=O)C(=Cc2ccccc2F)C1` [Compound 96], the concentration for half-maximal inhibition (IC50) is less than 2000 nM in assay [1] (Homo sapiens, HepG2, 24 h); 1000 ± 400 nM in [1]; 2500 ± 200 nM in assay [3] (Homo sapiens, MCF7, MTT, 24 h); less than 2000 nM in [5] (Homo sapiens, A549, 24 h); 1600 ± 400 nM in [5]; 2400 ± 800 nM in [7] (Homo sapiens, SGC-7901, MTT, 24 h). Moreover, the IC50 stood at 2500 ± 100 nM in [8] (Homo sapiens, HCT-116, MTT, 24 h) and 2100 ± 800 nM in assay [9] (Homo sapiens, HeLa, MTT, 24 h). Also, in assay [1] (setting [12]), the “HepG2 SI (selectivity index)” value amounted to 19.9. The “Expression of C-caspase-3 in HepG2 xenografts” value in assay [2] is given as “significantly increased in a dose-dependent manner”. Besides, in assay [3] (setting [12]), the “MCF-7 SI (selectivity index)” value is 8.0. Moreover, the “Expression of anti-apoptotic protein Bcl-2” value in assay [4] is listed as “decreased in a dose-dependent manner”. In addition, the “A549 SI (selectivity index)” value in [5] (setting [12]) was 12.4. In addition, the “Expression of Bcl-2 in HepG2 xenografts” value in [6] is “dose-dependently decreased”. Also, in assay [7] (setting [12]), the “SGC7901 SI (selectivity index)” value is given as 8.3. Besides, the “HCT116 SI (selectivity index)” value in [8] (setting [12]) stood at 8.0. The “HeLa SI (selectivity index)” value in [9] (setting [12]) stood at 9.5. Moreover, in [10], the “Inhibition of TNF-α secretion compared with PDTC (in words)” value is “strongest inhibitory effect”. Also, in assay [10], the TNF-α secretion was 45%. For the same compound, the “Fracted cells, HE staining” value in assay [11] (96 5.0 mg/kg, DOX 1.0 mg/kg) was “a plenty of fracted cells”. Moreover, the “Histopathological change of cell nucleus, HE staining” value in assay [11] (HepG2 xenografts, versus model group) is given as “made the HepG2 cell nucleus wrinkled”.
